Assay results: patent publication US20130253048A1, “Pharmaceutical Composition for Promoting Osteogenesis Containing Axial-equatorial Aryl-oriented Furofuran-type Lignan, and Pharmaceutical Preparation, Functional Food Product, and Health Food Product Comprising Composition” (ERINA CO., INC., priority 2010, published 2013)
Like-named read-outs stand apart in the source and are kept apart here.

Legend:
[1] = test system: mouse monocyte macrophage type cells under RANKL stimulation; conditions: cited from earlier work
[2] = test system: metatarsals of mouse fetus; assay: Organ culture of mouse fetus metatarsals, calcein staining; type: cell-based; conditions: 0.3 μM, 7 days organ culture, versus 0.3% DMSO negative control
Protocol: Eagle's minimum essential mediums (MEM, Life Technologies Japan Corporation (Invitrogen)) was used to prepare the organ culture medium by adding 1% of penicillin/streptomycin (Life Technologies Japan Corporation (GIBCO)), 0.25% of fetal bovine serum (Sigma-Aldrich Co. LLC.), 50 μg/ml of ascorbic acid (Wako Pure Chemical Industries, Ltd.), 1 mM of β-glycerophosphoric acid (Sigma-Aldrich Co. LLC.), and 1 μg/ml of calcein (Sigma-Aldrich Co. LLC.). As a test substance, 0.3 μM of fargesin, or as a control, 0.3% of DMSO (final cone., Wako Pure Chemical Industries, Ltd.) was added to the organ culture medium. Fargesin was used the same solution prepared in Example 1 containing 0.3% DMSO as the final concentration.
On 15 of pregnancy, mouse fetuses were took from pregnant female ICR mice (Japan SLC, Inc.) by Caesarean operation (E15.5) from the 15th days of a pregnant ICR female mouse by Caesarean section. Left and right metatarsals of the fetus were excised to be placed into the organ culture medium. The organ culture was performed under the conditions of 5% CO2 at 37 degree centigrade for 7 days to observe the effect on long axis direction.
The long axis of the bone grows depending on that of epiphyseal cartilage existing between an epiphysis and a shaft. […] Then, calcification was occurred from the occification center (ossification). […]

MC3T3-E1 cells = assay: Osteoblast activation, ALP activity in MC3T3-E1; type: cell-based, mouse
Protocol: MC3T3-E1 cells ((IAA) the Institution of Physical and Chemical Research), osteoblast-like cell line derived from the mouse fetus cranial bone cells, were inoculated into the 96 well plate at 4,000 cells/well. As a medium, the basal medium prepared in the Example 3 supplemented with fargesin at 2 to 80 μM was used. Pre-culture was performed by using the basal medium only under the conditions of 5% CO2 and 37 degree centigrade for 3 days. After that, the conditioned medium was changed to fresh medium with fargesin; the culture was performed under the conditions of 5% CO2 and 37 degree centigrade for 3 days. On the day 4 from the culture start, the conditioned medium was changed to the fresh medium; the culture was further performed under the conditions of 5% CO2 and 37 degree centigrade for 3 days. After the termination of the culture, the following MTT test, measurement of ALP activities, and the staining were performed.
Measurement of the ALP activity, statistical processing of the data, and the observation of differentiated cells were performed as the same way as those in Example 3, except the staining of the osteoclast cells were omitted.

[3] = test system: BMCs and UAMS-32 cells co-culture; assay: Differentiation of osteoblast and osteoclast in co-culture (ALP and TRAP activity); type: cell-based, mouse; conditions: for activity at 2 µM / activity at 6 µM / activity at 20 µM / activity at 60 µM / activity at 80 µM: Mus musculus, 120 h, 5 days co-culture, negative control = 100%
Protocol: Four-week-old ddY male mice (Japan SLC, Inc.) were killed by the cervical dislocation, and then, the long bones of left and right lower extremities were excised with muscles. All of the muscles were removed from the bones, and the femurs and shinbones were obtained. The both ends of the obtained femurs and shinbones were scraped a little by a little. The cells in the bone morrow were pushed out into the following medium by using a 2.5 ml of syringe with a needle (22G×1¼; Thermo corporation). After that, contaminants were eliminated through a filter ([…] Nylon Cell Strainer; Japan Becton, Dickinson and Company) to obtain more than 2×10^8 cells of BMCs.
Osteoblast-like cells, UAMS-32 cells, were purchased from the Institution of Physical and Chemical Research (Japan).
In order to prepare the basic medium, 10.2 g of α-MEM (powder, Life Technologies Japan Corporation (GIBCO)) was dissolved in 1 L of purified water and 2.2 g/l (w/v) of sodium bicarbonate was added. Then, it was filtered through a sterilized filter of which pore diameter was 0.22 μm (Nihon Millipore K. K). Further, the basic mediums were supplemented with 10% (v/v) fetal bovine serum (FBS) (Sigma, heat-inactivated for 30 minutes at 56° C.).
In this example, 1 μM of PGE2 and 10 nM of Vitamin D3 (both from Wako Pure Chemical Industries, Ltd.) were added to the medium to prepare a co-culture medium. By using the co-culture medium, cell suspensions of BMCs and UAMS-32 obtained as mentioned above were prepared. For the test group, 2 to 80 μM of fargesin was added, and for the negative control group, DMSO was added so as to be 0.3% of the final concentration.
BMCs were plated at the concentration of 2×10^6 cells/well, and UAMS-32 cells were plated at the concentration of 1×10^5 cells/well in each well of the 96 well plates, respectively. Then, the cells were co-cultured in the co-culture medium under the conditions of 5% CO2 and 37 degree centigrade for 5 days. The medium were changed on the 3rd days from the culture start. After cells were fixed as described in below, alkaline phosphatase (ALP) activity was measured as the index of osteoblast differentiation; tartrate-resistant acid phosphatase activity was measured as the index of osteoclast differentiation.
The cells were cultured under the above-mentioned conditions, 10% formalin aqueous solution was added into each well still standing for 10 minutes, and then ethanol was added still standing for further 1 minute to fix the cells. In order to measure TRAP activity, 10 mM sodium tartrate/50 mM citric acid buffer solution containing 1.36 mg of p-nitrophenyl sodium phosphate (Sigma-Aldrich Co. LLC.) (pH 4.6) was prepared as a substrate solution for TRAP. The substrate solution for TRAP was added to the well at the volume of 100 μl/well, and reacted for 15 to 20 minutes at a room temperature. The reaction solution was transferred into another 96 well plate, to which 100 μl/well of 0.1N NaOH was previously added to stop the reaction, and they were measured at absorbance of 405 nm.
50 mM sodium tartrate/0.1 M of sodium acetate buffer (pH 5.0) including 0.1 mg/ml naphthol AS-MX phosphate (sigma N-4875) and 0.6 mg/ml Fast red violet LB salt (both from Sigma-Aldrich Japan Co. LLC.) was prepared as TRAP staining solution. The TRAP staining solution was added to the wells to stain the cells in negative control group till they took on red color under room temperature. After that, the cells were washed with distilled water. The cells stained red and having not less than two nuclei was decided as multinuclear osteoclast, of which number was counted by using the microscope.
After the cells were cultured under the conditions, 100 μl/well of methanol cooled to −20 degree centigrade was added into the cells and stood for further 1 minute to fix the cells. […]

For COc1ccc([C@@H]2OC[C@H]3[C@@H]2CO[C@@H]3c2ccc3c(c2)OCO3)cc1OC [fargesin, Fargesin], the “phosphorylation of p38 and I-κB by RANKL stimulation” value ([1]; RANKL stimulation) is given as “inhibits the phosphorylation”, the “tartrate-resistant acid phosphatase activities” value ([1]; mouse monocyte macrophage type cells under RANKL stimulation, or marrow monocytoid cells in culture) is given as “dose-dependently inhibits” and the “extension of the metatarsal in long axis direction (calcified area, calcein fluorescence)” value [2] is given as “extended longer vertically”. The “ALP stained image of osteoblast-like cells” value (MC3T3-E1 cells; 60 to 80 μM, MC3T3-E1) was “many osteoblast stained in blue were observed”, the activity at 2 µM (MC3T3-E1 cells; Mus musculus, 2 μM, MC3T3-E1, negative control = 100) was 82.8 ± 8% and the activity at 6 µM (MC3T3-E1 cells; Mus musculus, 6 μM, MC3T3-E1, negative control = 100) was 89.8 ± 9.8%. It also gave an activity at 20 µM (MC3T3-E1 cells; Mus musculus, 20 μM, MC3T3-E1, negative control = 100) of 99.8 ± 13.4%, an activity at 60 µM (MC3T3-E1 cells; Mus musculus, 60 μM, MC3T3-E1, negative control = 100) of 180 ± 31.5% and an activity at 80 µM (MC3T3-E1 cells; Mus musculus, 80 μM, MC3T3-E1, negative control = 100) of 167 ± 32.7%. The “cells differentiated to the osteoclast, ALP and TRAP double staining” value ([3]; 60 to 80 μM, co-culture) was “rarely observed”, the activity at 2 µM ([3]; read-out: ALP activity (%)) was 113 ± 15.7% and the activity at 2 µM ([3]; read-out: TRAP activity (%)) was 89.5 ± 5.4%. It also gave an activity at 6 µM ([3]; read-out: ALP activity (%)) of 120 ± 10.1%, an activity at 6 µM ([3]; read-out: TRAP activity (%)) of 88.7 ± 7.2% and an activity at 20 µM ([3]; read-out: ALP activity (%)) of 146 ± 14.4%. The activity at 20 µM ([3]; read-out: TRAP activity (%)) was 74.4 ± 8.5%, the activity at 60 µM ([3]; read-out: ALP activity (%)) was 164 ± 14% and the activity at 60 µM ([3]; read-out: TRAP activity (%)) was 42.4 ± 7.1%. For the same molecule, the activity at 80 µM ([3]; read-out: ALP activity (%)) was 199 ± 14.6% and the activity at 80 µM ([3]; read-out: TRAP activity (%)) was 35.7 ± 5.6%.
